For one test, the system named is Neuropeptide Y (NPY). Briefly: Neuropeptide Y (NPY) expression in PC12 phaeochromocytoma cells. The format is cell-based. Particulars: LPS 200 ng/ml; lactic acid bacteria 1×10^4 CFU/ml; 24 hr. On the procedure: PC12 cells obtained from the Korean Cell Line Bank were cultured in DMEM medium supplemented with 10% FBS and 1% antibiotics, and dispensed at 1×10^6 cells per well in a 12-well plate. Then, LPS (200 ng/ml) was added to each well along with lactic acid bacteria (1×10^4 CFU/ml) and incubated for 24 hr. The cells and supernatants were collected, sonicated and centrifuged, and the amount of NPY in the supernatant was measured by ELISA kit.

A further test has as its system BDNF. Briefly: BDNF expression in SH-SY5Y cells. The format is cell-based. Particulars: LPS 200 ng/ml; lactic acid bacteria 1×10^4 CFU/ml; 24 h. On the procedure:
SH-SY5Y cells obtained from the Korean Cell Line Bank were cultured in DMEM medium supplemented with 10% FBS and 1% antibiotics, and dispensed at 2×10^6 cells per well in a 12-well plate. Then, LPS (200 ng/ml) was added to each well along with lactic acid bacteria (1×10^4 CFU/ml) and incubated for 24 h. The cells and supernatants were collected, sonicated and centrifuged, and the amount of BDNF in the supernatant was measured by ELISA kit.

The next test concerns Clostridium difficile. Briefly: Clostridium difficile proliferation in gut microbiota (PCR). Format: cell-based. Particulars: human feces culture; lactic acid bacteria 1×10^6 CFU/mL; anaerobic 24 hr. The gist of the method:
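Human fecal supernatant, diluted 10,000-fold in GAM, co-cultured anaerobically 24 h with lactic acid bacteria (1×10^6 CFU/mL). C. difficile quantified by PCR on pellet DNA (95 °C 30 s; 42 cycles 95 °C 5 s/72 °C 30 s); supernatant LPS measured by ELISA.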

The subject of the next test is IL-10. Briefly: IL-10 expression in LPS-treated macrophages (ELISA). The format is cell-based, C57BL/6 mice. Particulars: macrophages treated with lactic acid bacteria and LPS for 24 hours. The gist of the method: (§1)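 Peritoneal macrophages were elicited in male C57BL/6 mice (6 weeks) by i.p. 4% thioglycolate and harvested 96 h later. Cells at 0.5×10^6/well were treated with lactic acid bacteria plus LPS for 24 h. Cytokines in the supernatant were quantified by ELISA.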

A further test deals with gut microbiota. Description: LPS production in gut microbiota (ELISA). The format is cell-based. Particulars: human feces culture; lactic acid bacteria 1×10^6 CFU/mL; anaerobic 24 hr. As to the method:
Fresh human feces were suspended in anaerobic medium (GAM, Nissui Pharmaceutical Co., Ltd., Japan) and allowed to stand for 10 min. The supernatant was diluted with 10,000-fold anaerobic medium, 0.05 mL of the dilution was transplanted into 5 mL of freshly made anaerobic medium, and lactic acid bacteria (1×10^6 CFU/mL) were implanted and incubated anaerobically for 24 hr.

The nature of test [1]: Antioxidant activity (DPPH, in vitro). The format is biochemical. Particulars: DPPH 0.2 mM; lactic acid bacteria suspension 1×10^8 CFU/ml; 37° C. 20 min. The gist of the method: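 Lactic acid bacteria suspension (1×10^8 CFU/ml) or vitamin C (1 g/ml) was mixed with 0.2 mM ethanolic DPPH and incubated 20 min at 37° C. After centrifugation, supernatant absorbance at 517 nm gave the antioxidant activity.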

The test system of the next test is TNF-α. Description: TNF-α expression in LPS-treated macrophages (ELISA). Format: cell-based, C57BL/6 mice. Particulars: macrophages treated with lactic acid bacteria and LPS for 24 hours. Summed up:
as §1

On to Lactobacillus plantarum NK183, for which the “PC12 cell Induction of NPY expression” value with Neuropeptide Y (NPY) was “− (not or less than 20% (−; <20%))”. The “SHSY5Y cell Induction of BDNF expression” value in the test with BDNF is reported as “− (not or less than 20% (−; <20%))”. In the test on Clostridium difficile, the “Gut microbiota Inhibition of difficile bacteria proliferation” value is on record as “+ (weakly (+; >20-60%))”. Also, the “Macrophage Induction of IL-10 expression” value in the test with IL-10 is reported as “− (not or less than 20% (−; <20%))”. Moreover, the “Gut microbiota Inhibition of LPS production” value with gut microbiota was “+ (weakly (+; >20-60%))”. Further, in test [1], the Antioxidant activity result is listed as “+ (weakly (+; >20-60%))”. Further, the “Macrophage Inhibition of TNF-α expression” value (from here on “Macrophage Inhibition”) with TNF-α is reported as “+ (weakly (+; >20-60%))”.
Take Lactobacillus plantarum NK184: the “PC12 cell Induction of NPY expression” value with Neuropeptide Y (NPY) is “− (not or less than 20% (−; <20%))”. Further, in the test on BDNF, the “SHSY5Y cell Induction of BDNF expression” value was “− (not or less than 20% (−; <20%))”. Moreover, the “Gut microbiota Inhibition of difficile bacteria proliferation” value with Clostridium difficile is “+ (weakly (+; >20-60%))”. For the same substance, the “Macrophage Induction of IL-10 expression” value in the test with IL-10 was “+ (weakly (+; >20-60%))”. In the test with gut microbiota, the “Gut microbiota Inhibition of LPS production” value was “+ (weakly (+; >20-60%))”. In test [1], the Antioxidant activity entry is “++ (strongly (++; >60-90%))”. Besides, the “Macrophage Inhibition” value in the test with TNF-α is recorded as “+ (weakly (+; >20-60%))”.
On to Lactobacillus reuteri NK200, for which the “PC12 cell Induction of NPY expression” value with Neuropeptide Y (NPY) was “+ (weakly (+; >20-60%))”. For the same substance, the “SHSY5Y cell Induction of BDNF expression” value in the test with BDNF was “+ (weakly (+; >20-60%))”. Also, the “Gut microbiota Inhibition of difficile bacteria proliferation” value with Clostridium difficile is reported as “+ (weakly (+; >20-60%))”. The “Macrophage Induction of IL-10 expression” value in the test on IL-10 is given as “− (not or less than 20% (−; <20%))”. In the test with gut microbiota, the “Gut microbiota Inhibition of LPS production” value is given as “+ (weakly (+; >20-60%))”. For the same substance, in test [1], the Antioxidant activity result was “+ (weakly (+; >20-60%))”. The “Macrophage Inhibition” value in the test on TNF-α is “− (not or less than 20% (−; <20%))”.
As to Lactobacillus reuteri NK201, the “PC12 cell Induction of NPY expression” value in the test with Neuropeptide Y (NPY) is recorded as “+ (weakly (+; >20-60%))”. Besides, the “SHSY5Y cell Induction of BDNF expression” value in the test on BDNF is “+ (weakly (+; >20-60%))”. The “Gut microbiota Inhibition of difficile bacteria proliferation” value in the test with Clostridium difficile was “+ (weakly (+; >20-60%))”. Moreover, the “Macrophage Induction of IL-10 expression” value with IL-10 is “+ (weakly (+; >20-60%))”. In the test with gut microbiota, the “Gut microbiota Inhibition of LPS production” value is on record as “+ (weakly (+; >20-60%))”. Also, in test [1], the Antioxidant activity entry is given as “+ (weakly (+; >20-60%))”. Moreover, in the test on TNF-α, the “Macrophage Inhibition” value is given as “+ (weakly (+; >20-60%))”.
In the case of Lactobacillus rhamnosus NK211, the “PC12 cell Induction of NPY expression” value with Neuropeptide Y (NPY) is reported as “− (not or less than 20% (−; <20%))”. Also, the “SHSY5Y cell Induction of BDNF expression” value with BDNF is listed as “− (not or less than 20% (−; <20%))”. In addition, the “Gut microbiota Inhibition of difficile bacteria proliferation” value in the test with Clostridium difficile is “+ (weakly (+; >20-60%))”. In addition, the “Macrophage Induction of IL-10 expression” value in the test with IL-10 is recorded as “+ (weakly (+; >20-60%))”. Besides, the “Gut microbiota Inhibition of LPS production” value in the test with gut microbiota is listed as “− (not or less than 20% (−; <20%))”. The Antioxidant activity entry in test [1] is “+ (weakly (+; >20-60%))”. Further, in the test with TNF-α, the “Macrophage Inhibition” value is “+ (weakly (+; >20-60%))”.
For Lactobacillus rhamnosus NK212, the “PC12 cell Induction of NPY expression” value in the test on Neuropeptide Y (NPY) is reported as “− (not or less than 20% (−; <20%))”. Further, in the test with BDNF, the “SHSY5Y cell Induction of BDNF expression” value is “− (not or less than 20% (−; <20%))”. Further, the “Gut microbiota Inhibition of difficile bacteria proliferation” value in the test on Clostridium difficile was “− (not or less than 20% (−; <20%))”. Also, in the test on IL-10, the “Macrophage Induction of IL-10 expression” value is listed as “− (not or less than 20% (−; <20%))”. Further, the “Gut microbiota Inhibition of LPS production” value with gut microbiota is reported as “+ (weakly (+; >20-60%))”. Further, the Antioxidant activity entry in test [1] was “++ (strongly (++; >60-90%))”. For the same substance, the “Macrophage Inhibition” value in the test with TNF-α is “− (not or less than 20% (−; <20%))”.
Lactobacillus sakei NK197: the “PC12 cell Induction of NPY expression” value in the test with Neuropeptide Y (NPY) was “+ (weakly (+; >20-60%))”. The “SHSY5Y cell Induction of BDNF expression” value with BDNF is “− (not or less than 20% (−; <20%))”. In addition, the “Gut microbiota Inhibition of difficile bacteria proliferation” value with Clostridium difficile is on record as “+ (weakly (+; >20-60%))”. Moreover, the “Macrophage Induction of IL-10 expression” value with IL-10 is recorded as “+ (weakly (+; >20-60%))”. Further, in the test on gut microbiota, the “Gut microbiota Inhibition of LPS production” value is given as “+ (weakly (+; >20-60%))”. Moreover, in test [1], the Antioxidant activity entry is listed as “++ (strongly (++; >60-90%))”. Moreover, the “Macrophage Inhibition” value in the test with TNF-α is on record as “+ (weakly (+; >20-60%))”.
Regarding Lactobacillus sakei NK198, the “PC12 cell Induction of NPY expression” value in the test with Neuropeptide Y (NPY) is recorded as “+ (weakly (+; >20-60%))”. Also, in the test on BDNF, the “SHSY5Y cell Induction of BDNF expression” value is given as “− (not or less than 20% (−; <20%))”. Also, in the test with Clostridium difficile, the “Gut microbiota Inhibition of difficile bacteria proliferation” value is “− (not or less than 20% (−; <20%))”. In addition, the “Macrophage Induction of IL-10 expression” value in the test on IL-10 is “− (not or less than 20% (−; <20%))”. For the same substance, the “Gut microbiota Inhibition of LPS production” value in the test with gut microbiota is “++ (strongly (++; >60-90%))”. Also, the Antioxidant activity result in test [1] is “++ (strongly (++; >60-90%))”. For the same substance, in the test on TNF-α, the “Macrophage Inhibition” value is listed as “− (not or less than 20% (−; <20%))”.
With Lactococcus lactis NK208, in the test on Neuropeptide Y (NPY), the “PC12 cell Induction of NPY expression” value is “+ (weakly (+; >20-60%))”. The “SHSY5Y cell Induction of BDNF expression” value in the test with BDNF is on record as “+ (weakly (+; >20-60%))”. Also, in the test on Clostridium difficile, the “Gut microbiota Inhibition of difficile bacteria proliferation” value is given as “+ (weakly (+; >20-60%))”. The “Macrophage Induction of IL-10 expression” value with IL-10 was “− (not or less than 20% (−; <20%))”. Further, in the test on gut microbiota, the “Gut microbiota Inhibition of LPS production” value is “+ (weakly (+; >20-60%))”. Further, the Antioxidant activity result in test [1] is “− (not or less than 20% (−; <20%))”. Besides, the “Macrophage Inhibition” value with TNF-α is reported as “− (not or less than 20% (−; <20%))”.

Source of the values: US20250009819A1, “NOVEL PROBIOTICS AND USE THEREOF” (PBLBIOLAB CO., LTD., priority 2021, published 2025).
